The text below walks through data of patent US9890407B2, “Method for synthesizing cellulose in vitro” (University of Virginia Patent Foundation, priority 2013, dated 2018).

Data set [1] has as its target T1, Rhodobacter sphaeroides BcsA-B complex (cellulose synthase), wild type, BcsA SEQ ID NO: 1, BcsB SEQ ID NO: 3 (Cereibacter sphaeroides, UniProt Q3J125).
T1 construct: pETDuet, E. coli C43; purified, reconstituted in nanodiscs, proteoliposomes or detergent
T1 sequence (Q3J125 1-788): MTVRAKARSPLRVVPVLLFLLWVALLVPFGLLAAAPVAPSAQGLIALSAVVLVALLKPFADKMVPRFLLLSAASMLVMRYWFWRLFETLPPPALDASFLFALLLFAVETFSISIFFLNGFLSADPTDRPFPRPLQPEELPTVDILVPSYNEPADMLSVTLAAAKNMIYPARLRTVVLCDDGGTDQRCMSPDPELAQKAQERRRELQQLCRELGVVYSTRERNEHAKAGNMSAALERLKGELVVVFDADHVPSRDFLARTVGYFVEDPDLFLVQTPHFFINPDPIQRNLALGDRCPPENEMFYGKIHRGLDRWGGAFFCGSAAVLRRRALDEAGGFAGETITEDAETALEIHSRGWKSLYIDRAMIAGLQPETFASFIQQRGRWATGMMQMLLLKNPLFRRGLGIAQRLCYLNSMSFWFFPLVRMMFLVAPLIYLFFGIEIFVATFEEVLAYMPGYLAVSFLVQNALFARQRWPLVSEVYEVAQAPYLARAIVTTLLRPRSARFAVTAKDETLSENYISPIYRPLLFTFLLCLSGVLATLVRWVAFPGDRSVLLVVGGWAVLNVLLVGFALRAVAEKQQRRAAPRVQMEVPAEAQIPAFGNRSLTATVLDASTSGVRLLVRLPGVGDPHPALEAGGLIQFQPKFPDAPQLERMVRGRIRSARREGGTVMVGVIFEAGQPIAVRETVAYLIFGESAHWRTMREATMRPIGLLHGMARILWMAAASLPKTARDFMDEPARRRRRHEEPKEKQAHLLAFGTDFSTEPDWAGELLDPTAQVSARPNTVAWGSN
T1 sequence (Q3J126 21-725 partner): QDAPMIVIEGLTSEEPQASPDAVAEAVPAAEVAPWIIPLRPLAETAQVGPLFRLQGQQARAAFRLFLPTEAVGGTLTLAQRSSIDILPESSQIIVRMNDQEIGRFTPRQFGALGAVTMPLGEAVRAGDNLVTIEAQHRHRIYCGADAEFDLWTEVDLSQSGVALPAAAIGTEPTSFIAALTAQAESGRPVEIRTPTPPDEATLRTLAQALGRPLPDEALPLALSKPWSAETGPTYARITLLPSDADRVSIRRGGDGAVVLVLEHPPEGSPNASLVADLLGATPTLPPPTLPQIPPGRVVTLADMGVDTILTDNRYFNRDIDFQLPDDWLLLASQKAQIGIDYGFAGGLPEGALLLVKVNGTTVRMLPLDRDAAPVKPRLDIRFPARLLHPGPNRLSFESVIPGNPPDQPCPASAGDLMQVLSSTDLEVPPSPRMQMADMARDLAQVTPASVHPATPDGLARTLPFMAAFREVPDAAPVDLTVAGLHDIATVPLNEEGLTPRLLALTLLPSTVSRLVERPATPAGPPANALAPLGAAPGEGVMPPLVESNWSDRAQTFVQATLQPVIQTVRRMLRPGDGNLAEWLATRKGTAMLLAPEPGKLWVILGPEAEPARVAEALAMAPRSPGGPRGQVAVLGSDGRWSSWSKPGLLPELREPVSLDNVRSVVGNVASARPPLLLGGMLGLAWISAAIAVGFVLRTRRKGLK
Description: Inhibition of cellulose synthesis by alternative substrates (enzyme-coupled assay, PLs-reconstituted BcsA-B). It counts as biochemical. The settings on record: 1 mM UDP-Glc; for inhibition of polymer synthesis by alternative UDP-sugars: increasing concentrations of UDP-sugar; for reduction of the apparent reaction rate (inhibition): 5 mM alternative UDP-sugar, 90 min, 37° C. How it is done:
Pyruvate kinase (PK)—and lactate dehydrogenase (LDH)-coupled activity assays were performed by incubating 0.5 μM cellulose synthase with 1 U PK and 1 U LDH, 0.5 mM NADH, 1 mM phosphoenolpyruvate, and 30 mM MgCl2 in 20 mM Tris pH 7.5, 100 mM NaCl, 5 mM cellobiose and 10% glycerol in a total volume of 20 μL. The cellulose synthase complex was added last to the reaction mix after a pre-incubation for 10 min at RT. The decrease in absorbance at 340 nm was measured in a SpectraMax plate reader in Corning 384 well clear flat bottom assay plates. Control reactions in the absence of cellulose synthase were performed to determine the background NADH oxidation. Data were plotted and analyzed in Origin (5) and fitted to monophasic Michaelis-Menten kinetics as described (3).

In another data set the test system is cellulose synthesis. Description: Cellulose synthesis activity of inverted membrane vesicles / PLs containing BcsA, BcsB or truncated BcsB. The following applies: for catalytic activity (HMW polymer formation): IMVs, 60 min 37° C., with c-di-GMP. The format is biochemical, Rhodobacter sphaeroides. How it is done: FIG. 1A-1C (also referred to as Example 1, FIG. 1): BcsA and BcsB are necessary for cellulose synthesis. (FIG. 1A) Inverted membrane vesicles containing either BcsA, BcsB, or both subunits were incubated for 60 min at 37° C. in the presence and absence of c-di-GMP and 0.25 μCi UDP-[^3H]-Glc. The synthesized polymer was purified by descending paper chromatography and quantified by scintillation counting. The amount of product obtained is shown relative to the product formed from IMVs containing BcsA and BcsB. Control reactions were performed with IMVs derived from cells containing an empty pET28a vector or in the absence of c-di-GMP or the presence of 20 mM EDTA. Results are shown in light and dark gray for components from Ec and Rs, respectively. (FIG. 1B) immuno-blotting of IMVs containing BcsA and BcsB. BcsA and BcsB were expressed with C-terminal poly-histidine- and FLAG-tags, respectively, and the equivalent amounts of IMVs used for activity assays were analyzed under non-reducing conditions by western blotting. […]
FIG. 6A-6C (also referred to as Example 1, FIG. 6): The membrane-associated domain of BesB is required for cellulose synthesis. […] IMVs containing wild-type BesA and the indicated BesB constructs were tested for cellulose synthase activity by quantifying the accumulation of radioactively labeled cellulose. […] (FIG. 6C) Western analysis of the analyzed IMVs and PLs. […] The equivalent amounts of IMVs used for activity assays were used to quantify the BcsA and BcsB expression levels. Vesicles containing WT and the BcsA-B-S684-r complex were analyzed on separate gels. […]
Gram-negative bacteria transport cellulose across the inner and outer bacterial membranes. […] To identify the complex components required for cellulose synthesis and translocation across the inner bacterial membrane, we expressed BcsA and BcsB from Escherichia coli (Ec) K12 and Rhodobacter sphaeroides (Rs) in E. coli C43 (28), prepared inverted membrane vesicles (IMVs), and analyzed them for cellulose synthesis activity. […]

For the molecule `CC(=O)N[C@H]1[C@@H](OP(=O)(O)OP(=O)(O)OC[C@H]2O[C@@H](n3ccc(=O)[nH]c3=O)[C@H](O)[C@@H]2O)O[C@H](CO)[C@@H](O)[C@@H]1O` [UDP-NAG, UDP-N-acetyl glucosamine], in data set [1], the “inhibition of polymer synthesis by alternative UDP-sugars” value was “concentration-dependent inhibition” and the “reduction of the apparent reaction rate (inhibition)” value is recorded as 20%.
The like results for `O=c1ccn([C@@H]2O[C@H](COP(=O)(O)OP(=O)(O)O[C@H]3OC[C@@H](O)[C@H](O)[C@H]3O)[C@@H](O)[C@H]2O)c(=O)[nH]1` [UDP-Xyl, UDP-xylose] were, in that order, “strongest inhibitor” and “about 60%”.
Consider “BcsA-B-S684: BcsA complexed with BcsB fragment N-terminally truncated to start at Ser684”, for which, in the data set on cellulose synthesis (purified truncated complex in PLs), the “catalytic activity after reconstitution into PLs” value is given as “catalytically active”.

B1: BcsB: bacterial cellulose synthase B, periplasmic membrane-anchored subunit (SEQ ID NO:3) (protein)
chain: MDMRLLPFLFLGTLASMAAAQDAPMIVIEGLTSEEPQASPDAVAEAVPAAEVAPWIIPLRPLAETAQVGPLFRLQGQQARAAFRLFLPTEAVGGTLTLAQRSSIDILPESSQIIVRMNDQEIGRFTPRQFGALGAVTMPLGEAVRAGDNLVTIEAQHRHRIYCGADAEFDLWTEVDLSQSGVALPAAAIGTEPTSFIAALTAQAESGRPVEIRTPTPPDEATLRTLAQALGRPLPDEALPLALSKPWSAETGPTYARITLLPSDADRVSIRRGGDGAVVLVLEHPPEGSPNASLVADLLGATPTLPPPTLPQIPPGRVVTLADMGVDTILTDNRYFNRDIDFQLPDDWLLLASQKAQIGIDYGFAGGLPEGALLLVKVNGTTVRMLPLDRDAAPVKPRLDIRFPARLLHPGPNRLSFESVIPGNPPDQPCPASAGDLMQVLSSTDLEVPPSPRMQMADMARDLAQVTPASVHPATPDGLARTLPFMAAFREVPDAAPVDLTVAGLHDIATVPLNEEGLTPRLLALTLLPSTVSRLVERPATPAGPPANALAPLGAAPGEGVMPPLVESNWSDRAQTFVQATLQPVIQTVRRMLRPGDGNLAEWLATRKGTAMLLAPEPGKLWVILGPEAEPARVAEALAMAPRSPGGPRGQVAVLGSDGRWSSWSKPGLLPELREPVSLDNVRSVVGNVASARPPLLLGGMLGLAWISAAIAVGFVLRTRRKGLK
modifications: Rhodobacter sphaeroides
For B1, the “catalytic activity (HMW polymer formation)” value with cellulose synthesis is “catalytically inactive”.

B2: BcsA: bacterial cellulose synthase A, catalytic subunit (SEQ ID NO:1) (protein)
chain: MTVRAKARSPLRVVPVLLFLLWVALLVPFGLLAAAPVAPSAQGLIALSAVVLVALLKPFADKMVPRFLLLSAASMLVMRYWFWRLFETLPPPALDASFLFALLLFAVETFSISIFFLNGFLSADPTDRPFPRPLQPEELPTVDILVPSYNEPADMLSVTLAAAKNMIYPARLRTVVLCDDGGTDQRCMSPDPELAQKAQERRRELQQLCRELGVVYSTRERNEHAKAGNMSAALERLKGELVVVFDADHVPSRDFLARTVGYFVEDPDLFLVQTPHFFINPDPIQRNLALGDRCPPENEMFYGKIHRGLDRWGGAFFCGSAAVLRRRALDEAGGFAGETITEDAETALEIHSRGWKSLYIDRAMIAGLQPETFASFIQQRGRWATGMMQMLLLKNPLFRRGLGIAQRLCYLNSMSFWFFPLVRMMFLVAPLIYLFFGIEIFVATFEEVLAYMPGYLAVSFLVQNALFARQRWPLVSEVYEVAQAPYLARAIVTTLLRPRSARFAVTAKDETLSENYISPIYRPLLFTFLLCLSGVLATLVRWVAFPGDRSVLLVVGGWAVLNVLLVGFALRAVAEKQQRRAAPRVQMEVPAEAQIPAFGNRSLTATVLDASTSGVRLLVRLPGVGDPHPALEAGGLIQFQPKFPDAPQLERMVRGRIRSARREGGTVMVGVIFEAGQPIAVRETVAYLIFGESAHWRTMREATMRPIGLLHGMARILWMAAASLPKTARDFMDEPARRRRRHEEPKEKQAHLLAFGTDFSTEPDWAGELLDPTAQVSARPNTVAWGSN
modifications: Rhodobacter sphaeroides
On to B2, for which, in the data set on cellulose synthesis, the “catalytic activity (HMW polymer formation)” value is “catalytically inactive”.
